From US9302998B2, “Aryl triazole compounds with antitumoural activity” (SIGMA-TAU RESEARCH SWITZERLAND S.A., priority 2010, dated 2016)
Values belong to the compound of their own block, whether it stands above or below them.

What was measured:
Hsp90 = target: T1, Hsp90 (Homo sapiens, UniProt P07900); assay: Fluorescence Polarization (FP) binding, GM-BODIPY displacement from Hsp90; conditions: GM-BODIPY tracer, 4° C. for 4 hours
T1 construct: purchased Stressgen SPP-776
Description: GM-BODIPY (PerkinElmer, CUSN60342000MG) was previously dissolved in DMSO to obtain 10 mM stock solutions and kept at −20° C. until use.
Hsp90 (Stressgen, SPP-776), was previously dissolved in assay buffer (HFB) to form 2.2 μM stock solutions and kept at −80° C. until use.
The compounds were previously dissolved in DMSO to obtain stock solutions and kept at −20° C. The day of experiment, the compounds were prepared by serial dilutions in assay buffer (HFB) containing 20 mM HEPES (K) pH 7.3, 50 mM KCl, 5 mM MgCl2, 20 mM Na2MoO4 and 0.01% NP40. Before each use, 0.1 mg/ml Bovine Gamma globulin and 2 mM DTT were freshly added.
Fluorescence Polarization (FP) was performed in Opti-Plate™-96F well plates (Perkin Elmer, Zaventem, Belgium) using a plate reader (Wallac Envision 2101 multilabel reader, Perkin Elmer, Zaventem, Belgium). To evaluate the binding affinity of the molecules, 50 μl of the GM-BODIPY solution (100 nM) were added to 125 nM of Hsp90 in the presence of 5 μl of the test compounds at increasing concentrations. The plate was mixed on a shaker at 4° C. for 4 hours, and the FP values in mP (millipolarization units) were recorded. The IC50 values were calculated as the inhibitor concentration where 50% of the tracer is displaced; each data point is the result of the average of triplicate wells, and was determined from a plot using nonlinear least-squares analysis. Curve fitting was performed using
Prism GraphPad software program (GraphPad software, Inc., San Diego, Calif.).

[1] = system: NCI-H460 non-small cell lung carcinoma; assay: Cytotoxicity assay, sulphorodamine B test, NCI-H460; assay type: cell-based; conditions: Homo sapiens, NCI-H460; 72 h, sulphorodamine B
Description: (§1) The antiproliferative activity of novel Hsp90 inhibitors was also evaluated on various cancerous cell lines by means of the sulphorodamine B test (i.e., NCI-H460 non-small cell lung carcinoma, A431 epidermoid, A2780 ovarian, MDA-MB436 triple-negative breast, U87MG glioblastoma, A498 renal, HCT116 colon, MeWo melanoma, MiaPaCa2 pancreas, HeLa cervix uteri, NB4 promyelocytic leukemia). NCI-H460, A431, MDA-MB436, A2780, A498, HeLa, NB4 tumour cells were grown in RPMI 1640 containing 10% fetal bovine serum (i.e., FBS from GIBCO), L-glutamine, and 50 μg/ml gentamycin sulfate.
(§2) All cell lines were maintained in a 37° C. incubator with saturated humidity and an atmosphere containing 95% air and 5% CO2, and were sub-cultured every 2-3 days. Tumour cells were seeded in 96-well tissue culture plates at approximately 10% confluence and were allowed to attach and recover for 24 h.
(§3) Varying concentrations of the drugs were then added to each well to calculate their IC50 value (the concentration which inhibits the 50% of cell survival). The plates were incubated at 37° C. for 72 h. At the end of the treatment, the plates were washed by remotion of the supernatant and addition of PBS 3 times. 200 μl PBS and 50 μl of cold 80% trichloroacetic acid (TCA) were added. The plates were incubated on ice for at least 1 h. TCA was removed, the plates were washed 3 times by immersion in distilled-water and dried on paper and at 40° C. for […]. Then 200 μl of 0.4% sulphorodamine B in 1% acetic acid were added. The plates were incubated at room temperature for 30 min. Sulphorodamine B was removed, the plates were washed by immersion in 1% acetic acid for 3 times, then they were dried on paper and at 40° C. for 5 min. Then, 200 μl Tris 10 mM were added, the plates were kept under stirring for 20 min. The cell survival was determined as optical density by a Multiskan […] at 540 nm. The amount of cells killed was calculated as the percentage decrease in sulphorodamine B binding compared with control cultures.

A431 epidermoid = assay: Sulphorodamine B test at single concentration, A431; assay type: cell-based; conditions: Homo sapiens, A-431; 500 nM, 72 h
Description: as §1, §2, §3
(§4) The other cell lines were screened against one single concentration of the various inhibitors (i.e., 500 nM), all experiments being made in octuplicate, following the protocol described at example 35. Since NB4 cell line was grown in suspension, a further step of centrifugation (i.e., 1600 g for 10 min) was added after the 72 hour incubation period.

A2780 ovarian = assay: Sulphorodamine B test at single concentration, A2780; assay type: cell-based; conditions: Homo sapiens, 500 nM, 72 h
Description: as §1, §2, §3, §4

[2] = system: MDA-MB436 triple-negative breast; assay: Sulphorodamine B test at single concentration, MDA-MB436; assay type: cell-based; conditions: Homo sapiens, MDA-MB-436; 500 nM, 72 h
Description: as §1, §2, §3, §4

U87MG glioblastoma = assay: Sulphorodamine B test at single concentration, U87MG; assay type: cell-based; conditions: Homo sapiens, U-87 MG; 500 nM, 72 h
Description: as §1
(§5) MeWo and U87-MG cells were cultured in Eagle's Minimum Essential Medium (i.e., EMEM) containing 10% FBS, L-glutamine, 1 mM sodium pyruvate, 0.1 mM non-essential amino acids, 1.5 g/l sodium bicarbonate, and 50 μg/ml gentamycin sulphate.
as §2, §3, §4

A498 renal = assay: Sulphorodamine B test at single concentration, A498; assay type: cell-based; conditions: Homo sapiens, 500 nM, 72 h
Description: as §1, §2, §3, §4

HCT116 colon = assay: Sulphorodamine B test at single concentration, HCT116; assay type: cell-based; conditions: Homo sapiens, HCT-116; 500 nM, 72 h
Description: as §1
HCT116 cells were cultured in McCoy's medium containing 10% FBS, L-glutamine, and 50 μg/ml gentamycin sulfate.
as §2, §3, §4

MeWo melanoma = assay: Sulphorodamine B test at single concentration, MeWo; assay type: cell-based; conditions: Homo sapiens, 500 nM, 72 h
Description: as §1, §5, §2, §3, §4

MiaPaCa2 pancreas = assay: Sulphorodamine B test at single concentration, MiaPaCa2; assay type: cell-based; conditions: Homo sapiens, MIA PaCa-2; 500 nM, 72 h
Description: as §1
MiaPaCa2 cells were cultured in DMEM medium containing 10% FBS, L-glutamine, and 50 μg/ml gentamycin sulfate.
as §2, §3, §4

HeLa cervix uteri = assay: Sulphorodamine B test at single concentration, HeLa; assay type: cell-based; conditions: Homo sapiens, 500 nM, 72 h
Description: as §1, §2, §3, §4

[3] = system: NB4 promyelocytic leukemia; assay: Sulphorodamine B test at single concentration, NB4; assay type: cell-based; conditions: 500 nM, 72 h, suspension cells
Description: as §1, §2, §3, §4

- IC50 (Hsp90): < 50 nM
SMILES: CCNC(=O)c1nnn(-c2cc(C(C)C)c(O)cc2O)c1-c1ccc(CNCC2CCCCC2)cc1 [Example 15, 5-{4-[(cyclohexylmethyl-amino)-methyl]-phenyl}-1-(2,4-dihydroxy-5-isopropyl-phenyl)-1H-[1,2,3]triazole-4-carboxylic acid ethylamide]
- IC50 [1]: < 50 nM
- inhibition at 0.5 µM (A431 epidermoid): ≥ 50%
- inhibition at 0.5 µM (A2780 ovarian): ≥ 50%
- inhibition at 0.5 µM [2]: ≥ 50%
- inhibition at 0.5 µM (U87MG glioblastoma): ≥ 50%
- inhibition at 0.5 µM (A498 renal): ≥ 50%
- inhibition at 0.5 µM (HCT116 colon): ≥ 50%
- inhibition at 0.5 µM (MeWo melanoma): ≥ 50%
- inhibition at 0.5 µM (MiaPaCa2 pancreas): ≥ 50%
- inhibition at 0.5 µM (HeLa cervix uteri): ≥ 50%
- inhibition at 0.5 µM [3]: ≥ 50%

- IC50 (Hsp90): < 50 nM
SMILES: CCNC(=O)c1nnn(-c2cc(C(C)C)c(O)cc2O)c1-c1ccc(CNCCN(CC)CC)cc1 [Example 17, 5-{4-[(2-diethylamino-ethylamino)-methyl]-phenyl}-1-(2,4-dihydroxy-5-isopropyl-phenyl)-1H-[1,2,3]triazole-4-carboxylic acid ethylamide]
- IC50 [1]: 100 to 500 nM
- inhibition at 0.5 µM (A431 epidermoid): ≥ 50%
- inhibition at 0.5 µM (A2780 ovarian): ≥ 50%
- inhibition at 0.5 µM [2]: ≥ 50%
- inhibition at 0.5 µM (U87MG glioblastoma): ≥ 50%
- inhibition at 0.5 µM (A498 renal): 30 to 50%
- inhibition at 0.5 µM (HCT116 colon): 30 to 50%
- inhibition at 0.5 µM (MeWo melanoma): ≥ 50%
- inhibition at 0.5 µM (MiaPaCa2 pancreas): ≥ 50%
- inhibition at 0.5 µM (HeLa cervix uteri): 30 to 50%
- inhibition at 0.5 µM [3]: ≥ 50%

- IC50 (Hsp90): < 50 nM
SMILES: CCNC(=O)c1nnn(-c2cc(C(C)C)c(O)cc2O)c1-c1ccc(CN2CC[C@H](N(C)C)C2)cc1 [Example 20, 1-(2,4-dihydroxy-5-isopropyl-phenyl)-5-[4-((S)-3-dimethylamino-pyrrolidin-1-ylmethyl)-phenyl]-1H-[1,2,3]triazole-4-carboxylic acid ethylamide]
- IC50 [1]: < 50 nM
- inhibition at 0.5 µM (A431 epidermoid): ≥ 50%
- inhibition at 0.5 µM (A2780 ovarian): ≥ 50%
- inhibition at 0.5 µM [2]: ≥ 50%
- inhibition at 0.5 µM (U87MG glioblastoma): ≥ 50%
- inhibition at 0.5 µM (A498 renal): 30 to 50%
- inhibition at 0.5 µM (HCT116 colon): ≥ 50%
- inhibition at 0.5 µM (MeWo melanoma): ≥ 50%
- inhibition at 0.5 µM (MiaPaCa2 pancreas): ≥ 50%
- inhibition at 0.5 µM (HeLa cervix uteri): ≥ 50%
- inhibition at 0.5 µM [3]: ≥ 50%

- IC50 (Hsp90): < 50 nM
SMILES: CCCCCCNC(=O)c1nnn(-c2cc(C(C)C)c(O)cc2O)c1-c1ccc(CN2CCOCC2)cc1 [Example 27, 1-(2,4-dihydroxy-5-isopropyl-phenyl)-5-(4-morpholin-4-ylmethyl-phenyl)-1H-[1,2,3]triazole-4-carboxylic acid hexylamide]
- IC50 [1]: < 50 nM
- inhibition at 0.5 µM (A431 epidermoid): ≥ 50%
- inhibition at 0.5 µM (A2780 ovarian): ≥ 50%
- inhibition at 0.5 µM [2]: ≥ 50%
- inhibition at 0.5 µM (U87MG glioblastoma): ≥ 50%
- inhibition at 0.5 µM (A498 renal): ≥ 50%
- inhibition at 0.5 µM (HCT116 colon): ≥ 50%
- inhibition at 0.5 µM (MeWo melanoma): ≥ 50%
- inhibition at 0.5 µM (MiaPaCa2 pancreas): ≥ 50%
- inhibition at 0.5 µM (HeLa cervix uteri): ≥ 50%
- inhibition at 0.5 µM [3]: ≥ 50%

- IC50 (Hsp90): < 50 nM
SMILES: CC(C)c1cc(-n2nnc(C(=O)NC3CCCC3)c2-c2ccc(CN3CCOCC3)cc2)c(O)cc1O [Example 28, 1-(2,4-dihydroxy-5-isopropyl-phenyl)-5-(4-morpholin-4-ylmethyl-phenyl)-1H-[1,2,3]triazole-4-carboxylic acid cyclopentylamide]
- IC50 [1]: < 50 nM
- inhibition at 0.5 µM (A431 epidermoid): ≥ 50%
- inhibition at 0.5 µM (A2780 ovarian): ≥ 50%
- inhibition at 0.5 µM [2]: ≥ 50%
- inhibition at 0.5 µM (U87MG glioblastoma): ≥ 50%
- inhibition at 0.5 µM (A498 renal): ≥ 50%
- inhibition at 0.5 µM (HCT116 colon): ≥ 50%
- inhibition at 0.5 µM (MeWo melanoma): ≥ 50%
- inhibition at 0.5 µM (MiaPaCa2 pancreas): ≥ 50%
- inhibition at 0.5 µM (HeLa cervix uteri): ≥ 50%
- inhibition at 0.5 µM [3]: ≥ 50%
